These results are taken from patent US20120083464A1, “NEUROPROTECTIVE PROPERTIES OF 5'-METHYLTHIOADENOSINE” (priority 2009, published 2012).

Structures are written as SMILES. Entries after “also recorded” stand apart in the source; their conditions may differ.

In test [1] the test system is caspase 3 activity. The test can be described thus: NMDA-mediated increase in caspase 3 activity in pure neuronal culture. The class given is cell-based, Sprague-Dawley rat. The settings on record: NMDA 300 μM, MTA 100 to 500 μM. As for the experimental part: Primary cultures of brain cortical neurons were essentially prepared as described previously (Bruno et al., 2001, Eur. J. Neurosci., 13:1469-1478). The fronto-lateral cortical lobes were dissected out of Sprague-Dawley embryonic day 17 foetuses and were mechanically dissociated in Hanks' balanced solution. The cortical lobes were triturated by aspirating 7-10 times using a Pasteur pipette with a flame-narrowed tip. […]
(§1) Cortical neurons or mixed cortical neurons and glia were plated on poly-L-lysine-coated 6-well culture plates and after 7 DIV, cells were treated with vehicle or NMDA (300 μM) for different periods of time. […] Extracts were then centrifuged at 5,000×g for 10 min at 4° C., and protein content was determined by using the BCA protein assay according to the manufacturer instructions. Cell extracts (40 μg of protein) were incubated in reaction buffer (25 mM Hepes, 10% sucrose, 0.1% CHAPS, 10 mM DTT) containing 50 μM fluorescence substrate Z-DEVD-AFC at 37° C. for 1 h. Cleavage of the AFC fluorophore was determined in a spectrofluorometer at excitation wavelength of 400 nm and fluorescence was detected at an emission wavelength of 505 nm. Caspase 3 activity was expressed as units of fluorescence/mg of protein/h (Posadas et al., 2009, Pharm. Res., In press).

Test [2] has as its system caspase 3 activity. As to the kind of experiment: NMDA-mediated increase in caspase 3 activity in mixed neuronal-glial culture. It is filed as cell-based, Sprague-Dawley rat. The conditions noted are these: NMDA 300 μM, MTA 250 μM or MK-801 10 μM. As for the experimental part: Primary cultures of brain cortical neurons and glia were essentially prepared as described previously (Bruno et al., 2001, Eur. J. Neurosci., 13:1469-1478). The fronto-lateral cortical lobes were dissected out of Sprague-Dawley embryonic day 17 foetuses and were mechanically dissociated in Hanks' balanced solution. The cortical lobes were triturated by aspirating 7-10 times using a Pasteur pipette with a flame-narrowed tip. […]
as §1

Another test has as its system IL-1β release. The test can be described thus: LPS neuroinflammation model in cerebellar organotypic cultures: IL1-beta ELISA. The class given is cell-based, C57/B16 wild type mice. The conditions noted are these: 192 μM MTA pre-treatment, 15 μg/ml LPS, 3 hrs. The source says: Organotypic cultures model of neuroinflammation is based on previous observations in which systemic injections of lipopolysaccharide (LPS) in mice spinal cord induce inflammation, demyelinization and Wallerian degeneration. In mice cerebellar organotypic cultures, LPS induces microglia activation with consequent demyelination and axonal damage. In particular, LPS induces TNF-alpha, IL1-beta release, axonal swelling and end bulbs due to axonal transport block, and a decrease of axonal density. Organotypic cultures represent the best model to represent in vivo mechanisms since they maintain cell-cell interaction and organotypic structure of brain region studied. In this way, this in vitro neuroinflammation model reproduces the microglia activation, demyelinization and axonal damage phenomena observed in MS.
Cerebellar organotypic cultures which were pre-treated for half hour with 192 μM of MTA and 15 μg/ml of LPS have been used to generate neuroinflammation model.
2. Data analysis: Western blot, immunofluorescence and ELISA analysis were performed using conventional techniques.
Background: In an ELISA, binding on a coated surface is turned into a signal by an enzyme label.

In test [3] the test system is hippocampal neurons after pilocarpine-induced status epilepticus. As to the kind of experiment: Pilocarpine model of temporal lobe epilepsy (status epilepticus), hippocampal histology. It is filed as in vivo, Sprague-Dawley rats. The settings on record: for quantification of cells in area CA1 at 30 days after SE: preliminary. The source says:
We compared two MTA treatment regimens to examine its neuroprotective effect on pilocarpine-induced SE in adult rats. One regimen involved 5 days of MTA treatment beginning beginning 2 days before SE (pre-SE MTA). The other regimen, a more clinically relevant protocol, consisted of MTA treatment for 3 days beginning at the termination of SE (post-SE MTA).
Young adult (175-200 g), male Sprage-Dawley rats were divided into four MTA treatment groups, 9-11 rats per group. In group A, rats were subjected to pilocarpine-induced status epilepticus (SE). Following 90 minutes of continuous seizure activity, SE was stopped by a single administration of diazepam (10 mg/kg). The rats were injected either with vehicle or MTA once daily for 3 days. Rats were sacrificed at day 4 after SE, and their brains perfusion fixed, frozen and sectioned for histology. In group B, treatment of rats was the same as Group A except that the rats were sacrificed at day 30 after SE. In group C, rats were treated with MTA once daily for two days. On the third day, rats underwent pilocarpine-induced SE. The rats were continuously treated with MTA once daily for 3 more days; controls received placebo The rats were then anesthetized and sacrificed day 4 after SE. In group D, rats were treated the same way as Group C except that the rats were sacrificed on 30 days after SE.
The sections were subjected to cresyl violet (Nissl) staining and NeuN immunostaining to examine cell loss. Timm staining to identify mossy fiber sprouting was performed on the 30-day survival group.

Another test deals with isolated optic nerve. The test can be described thus: Simulated ischemia (OGD) in isolated optic nerves, LDH release. More on the design: species or system Sprague Dawley rats. The settings on record: 1 h ischemia with iodoacetate + 2 h reperfusion; MTA 100-300 μM. Here is the method: Ischemic damage was induced by substituting […] and adding 1 mM of the glyocolytic blocker iodoacetate (1 mM) for 1 h followed by 2 h of reperfusion in […] aCSF. Optic nerves during ischemia and reperfusion were incubated with vehicle, for controls, and with MTA or glutamate receptor antagonists, and subsequently processed for LDH release assay. The results are the mean±SEM of at least three different experiments performed in duplicate.
Cell viability in oligodendrocyte cultures was assayed after 24 h of exposure to MTA (1 μM to 3 mM) calcein-AM assays respectively followed by fluorimetry measurements (Synergy-HT). Oligodendrocyte protection from excitotoxicity and optic nerve damage after ischemia (1 hour+2 hours reperfusion) were examined using lactate dehydrogenase release assays in the presence or absence of MTA (100-300 μM for 3 hours).

With `CSC[C@H]1O[C@@H](n2cnc3c(N)ncnc32)[C@H](O)[C@@H]1O` [MTA, 5′-methylthioadenosine], the “effect on NMDA-mediated increase in caspase 3 activity” value in the test on caspase 3 activity [1] is listed as “Lack of effect”. For the same molecule, in the test on caspase 3 activity [2], the “protection against NMDA-induced caspase 3 activity” value is “blockade of caspase 3 activation; also recorded: protection”. In addition, in the test with IL-1β release, the “IL-1β release (ELISA)” value is “decreases; also recorded: minor quantity”. The “hippocampal neuronal loss, qualitative (Nissl stain, NeuN immunohistochemistry)” value in test [3] (MTA started before or after SE, early and late timepoints, dentate hilus, CA1, CA3) was “qualitatively reduced neuronal loss; also recorded: qualitatively more Nissl-stained cells”. For the same molecule, the “mossy fiber sprouting (Timm stain)” value in test [3] (late timepoint, either MTA group) was “No qualitative difference”. Besides, the “quantification of cells in area CA1 at 30 days after SE” value in test [3] (post-SE MTA group, p=0.057) is on record as “trend toward neuroprotection; also recorded: non-significant trend toward increased cell numbers”; in test [3] (pre-SE MTA group, p=0.02), “significant neuroprotective effects”. Moreover, the “hippocampal NeuN immunoreactivity at 30 days after SE (representative example)” value in test [3] (post-SE MTA, dentate gyrus) is “only mild cell loss”; in test [3] (pre-SE MTA, dentate gyrus and pyramidal cell layer) it was “good preservation of neurons”. The “OGD/ischemia-induced damage in isolated optic nerve (LDH release)” value in the test on isolated optic nerve is reported as “similarly protective”.
